Test results reported in patent publication US8436159B2, “Glyphosate resistant class I 5-endolpyruvylshikimate-3-phosphate synthase (EPSPS)” (Monsanto Technology LLC, priority 2003, dated 2013).

Target: T1, maize (Zea mays) class I EPSPS variant TIPS (T102I, P106S), pMON70462 (Zea mays, UniProt O24566, P106S/T102I)
T1 construct: pMON70462
T1 sequence (O24566 1-444 T102I/P106S): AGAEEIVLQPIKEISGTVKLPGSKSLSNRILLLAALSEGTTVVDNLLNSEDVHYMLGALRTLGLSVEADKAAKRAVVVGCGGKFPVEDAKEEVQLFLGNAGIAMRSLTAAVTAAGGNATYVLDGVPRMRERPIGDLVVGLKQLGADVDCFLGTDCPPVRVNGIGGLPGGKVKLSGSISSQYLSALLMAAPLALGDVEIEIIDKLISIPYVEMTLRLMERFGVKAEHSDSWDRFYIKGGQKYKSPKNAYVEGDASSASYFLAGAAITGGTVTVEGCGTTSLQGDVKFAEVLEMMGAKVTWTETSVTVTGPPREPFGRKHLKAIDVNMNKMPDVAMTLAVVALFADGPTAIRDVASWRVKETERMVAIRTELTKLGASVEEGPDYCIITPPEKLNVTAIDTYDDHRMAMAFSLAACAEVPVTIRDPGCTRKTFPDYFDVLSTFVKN
Test: EPSPS steady-state kinetics, TIPS variant
Format: biochemical
Experimental: The wild type and variant EPSPS coding sequences were cloned into a pET-19b base vector (Novagen, Madison, Wis.). The plant (maize) class I EPSPS variants so created were assigned pMON plasmid numbers (Table 2). The variant EPSPS proteins were purified from the E. coli host using the protocols outlined in the pET system manual, 9th edition (Novagen) or by the following method. A single colony or a few microliters from a glycerol stock was inoculated into 4 mL LB medium containing 0.1 mg/mL carbenicillin antibiotic. The culture was incubated with shaking at 37 C for 4 hours. The cultures were stored at 4° C. overnight. The following morning, 1 mL of the overnight culture was used to inoculate 100 mL of fresh LB medium containing 0.1 mg/mL carbenicillin. The cultures were incubated with shaking at 37 C for 4-5 hours, then the cultures were placed at 4° C. for 5-10 minutes. The cultures were then induced with IPTG (1 mM final concentration) and incubated with shaking at 30 C for 4 hours or 20° C. overnight. The cells were harvested by centrifugation at 7000 rpm for 20 minutes at 4° C. The supernatant was removed and the cells were frozen at −70° C. until further use. The proteins were extracted by resuspending the cell pellet in BugBuster reagent (Novagen) using 5 mL reagent per gram of cells. […]

O=C(O)CNCP(=O)(O)O [glyphosate, N-phosphonomethylglycine]
Ki: 58 ± 14 µM
